Source: patent publication US20090253644A1, “Radiosensitizer” (TOYO SUISAN KAISHA, LTD., priority 2004, published 2009)

How the values were obtained:
[1] = system: angiogenesis (tube formation); test: Assay by angiogenesis kit (KZ-1000), tube formation; type: cell-based
Method: The anti-angiogenic effect obtained by combined use of 20 μM of α-SQMG C18:0 administration and 4 Gy of ^60Co γ-ray irradiation was investigated using an angiogenesis kit (“angiogenesis kit KZ-1000” of Kurabo Industries Ltd.).
A drug named Suramin is the known substance as a drug suppressing angiogenesis, and it is known that its action is to inhibit a growth factor receptor of a vascular endothelial cell. In the present Example, Suramin was used as a positive control at 50 μM.
As described above, the “theoretical additive point of combined use” is calculated by multiplication, and the theoretical value is compared with an actually measured value.

[2] = system: Bovine aortic endothelial cells (BAEC); test: Colony assay on vascular endothelial cells with 60Co γ-ray irradiation; type: cell-based; design: key to actually measured SF value of combined use group / actually measured SF value of combined use: SF = colonies/seeded cells×(PE/100); PE = control colony formation rate; settings: for SF (cell surviving fraction), administration alone / synergistic effect of combined use with radiation on suppression of proliferation of vascular endothelial cells: 10 μM; for SF (cell surviving fraction), administration alone: 24 hours, no irradiation; for synergistic effect of combined use with radiation on suppression of proliferation of vascular endothelial cells: 4 Gy and/or 6 Gy
Method: Bovine aortic endothelial cells (BAEC) were appropriately seeded on a petri dish, and adhesion of cells was confirmed after 2 to 3 hours. In a group of α-SQMG C18:0 administration alone and a combined use group, the cells were treated with 10 μM of α-SQMG C18:0. After 24 hours, a medium was exchanged in all test groups, and 4 Gy of ^60Co γ-ray was irradiated in a group of irradiation alone and a combined use group. After the cells were cultured in a CO2 incubator at 37° C. for 10 to 12 days, formed colonies were fixed with formalin, and stained with a crystal violet staining solution. On each plate, the number of colonies consisting of about 50 or more cells was counted, and cell surviving fraction (SF) was obtained according to the following equation.
SF (cell surviving fraction)=number of colonies/number of seeded cells×(PE/100)
Herein, PE (plating efficiency) represents a colony formation rate (%) on a plate of a control.
An experiment was performed three times, and an average of them was calculated.
The same experiment as that of Experimental Example 2-1 was performed except that a radiation dose 6 Gy was irradiated in place of 4 Gy used in Experimental Example 2-1. […]

[3] = 4 Gy 60Co γ-ray + α-SQMG C18:0 20 μM or Suramin 50 μM

| Compound | tube formation rate, Actually measured value, combined use [1, 3] | tube formation rate, Theoretical value (theoretical additive point of combined use) [1, 3] | tube formation rate, use alone ([1]; α-SQMG C18:0 20 μM, Suramin 50 μM, no irradiation) | actually measured SF value of combined use group ([2]; 10 μM + 4 Gy 60Co γ-ray) | theoretical additive point of combined use (SF) ([2]; 10 μM + 4 Gy 60Co γ-ray) | SF (cell surviving fraction), administration alone [2] | actually measured SF value of combined use group ([2]; 10 μM + 6 Gy 60Co γ-ray) | theoretical additive point of combined use (SF) ([2]; 10 μM + 6 Gy 60Co γ-ray) | synergistic effect of combined use with radiation on suppression of proliferation of vascular endothelial cells [2] |
| --- | --- | --- | --- | --- | --- | --- | --- | --- | --- |
| Cc1ccc(C(=O)Nc2ccc(S(=O)(=O)O)c3cc(S(=O)(=O)O)cc(S(=O)(=O)O)c23)cc1NC(=O)c1cccc(NC(=O)Nc2cccc(C(=O)Nc3cc(C(=O)Nc4ccc(S(=O)(=O)O)c5cc(S(=O)(=O)O)cc(S(=O)(=O)O)c45)ccc3C)c2)c1 [Suramin, reference compound] | 0.232 | 0.219 | 0.3386 |  |  |  |  |  |  |
| CCCCCCCCCCCCCCCCCC(=O)OCC(CO[C@H]1O[C@H](CS(=O)(=O)[O-])[C@@H](O)[C@H](O)[C@H]1O)OC(=O)CCCCCCCCCCCCCCCCC.[Na+] (stereo partly drawn) [α-SQDG C18:0, 3-O-(6-deoxy-6-sulfo-α-D-glucopyranosyl)-1,2-di-O-stearoyl-glycerol sodium salt] |  |  |  | 0.0882 | 0.1765 | 0.9216 |  |  |  |
| CCCCCCCCCCCCCC(=O)OCC(O)CO[C@H]1O[C@H](CS(=O)(=O)[O-])[C@@H](O)[C@H](O)[C@H]1O.[Na+] (stereo partly drawn) [α-SQMG C14:0, 3-O-(6-deoxy-6-sulfo-α-D-glucopyranosyl)-1-O-myristoyl-glycerol sodium salt] |  |  |  |  |  | 1.0605 | 0.0109 | 0.0715 | considerably great synergistic effect |
| CCCCCCCCCCCCCCCC(=O)OCC(O)CO[C@H]1O[C@H](CS(=O)(=O)[O-])[C@@H](O)[C@H](O)[C@H]1O.[Na+] (stereo partly drawn) [α-SQMG C16:0, 3-O-(6-deoxy-6-sulfo-α-D-glucopyranosyl)-1-O-palmitoyl-glycerol sodium salt] |  |  |  |  |  | 0.9553 | 0.0233 | 0.0644 | considerably great synergistic effect |
| CCCCCCCC/C=C\CCCCCCCC(=O)OCC(O)CO[C@H]1O[C@H](CS(=O)(=O)[O-])[C@@H](O)[C@H](O)[C@H]1O.[Na+] (stereo partly drawn) [α-SQMG C18:1, 3-O-(6-deoxy-6-sulfo-α-D-glucopyranosyl)-1-O-oleoyl-glycerol sodium salt] |  |  |  | 0.0843 | 0.1990 | 1.0392 |  |  |  |
| CCCCCCCCCCCCCCCCCC(=O)OCC(O)CO[C@H]1O[C@H](CS(=O)(=O)[O-])[C@@H](O)[C@H](O)[C@@H]1O.[Na+] (stereo partly drawn) [α-SRMG C18:0, 3-O-(6-deoxy-6-sulfo-α-D-mannopyranosyl)-1-O-stearoyl-glycerol sodium salt] |  |  |  | 0.0784 | 0.1677 | 0.8758 |  |  |  |
| CCCCCCCCCCCCCCCCCC(=O)OCC(CO[C@@H]1O[C@H](CS(=O)(=O)[O-])[C@@H](O)[C@H](O)[C@H]1O)OC(=O)CCCCCCCCCCCCCCCCC.[Na+] (stereo partly drawn) [β-SQDG C18:0, 3-O-(6-deoxy-6-sulfo-β-D-glucopyranosyl)-1,2-di-O-stearoyl-glycerol sodium salt] |  |  |  | 0.0908 | 0.1377 | 0.7190 |  |  |  |
| CCCCCCCCCCCCCCCCCC(=O)OCC(O)CO[C@@H]1O[C@H](CS(=O)(=O)[O-])[C@@H](O)[C@H](O)[C@H]1O.[Na+] (stereo partly drawn) [β-SQMG C18:0, 3-O-(6-deoxy-6-sulfo-β-D-glucopyranosyl)-1-O-stearoyl-glycerol sodium salt] |  |  |  | 0.0922 | 0.1640 | 0.8562 |  |  |  |
